Measurements: patent US20260335323A1, “CHIMERIC MOLECULE” (UCL Business Ltd, priority 2023, published 2026)

Molecular target: T1, ULK1 (Homo sapiens, UniProt O75385)
T1 sequence (O75385 1-1050): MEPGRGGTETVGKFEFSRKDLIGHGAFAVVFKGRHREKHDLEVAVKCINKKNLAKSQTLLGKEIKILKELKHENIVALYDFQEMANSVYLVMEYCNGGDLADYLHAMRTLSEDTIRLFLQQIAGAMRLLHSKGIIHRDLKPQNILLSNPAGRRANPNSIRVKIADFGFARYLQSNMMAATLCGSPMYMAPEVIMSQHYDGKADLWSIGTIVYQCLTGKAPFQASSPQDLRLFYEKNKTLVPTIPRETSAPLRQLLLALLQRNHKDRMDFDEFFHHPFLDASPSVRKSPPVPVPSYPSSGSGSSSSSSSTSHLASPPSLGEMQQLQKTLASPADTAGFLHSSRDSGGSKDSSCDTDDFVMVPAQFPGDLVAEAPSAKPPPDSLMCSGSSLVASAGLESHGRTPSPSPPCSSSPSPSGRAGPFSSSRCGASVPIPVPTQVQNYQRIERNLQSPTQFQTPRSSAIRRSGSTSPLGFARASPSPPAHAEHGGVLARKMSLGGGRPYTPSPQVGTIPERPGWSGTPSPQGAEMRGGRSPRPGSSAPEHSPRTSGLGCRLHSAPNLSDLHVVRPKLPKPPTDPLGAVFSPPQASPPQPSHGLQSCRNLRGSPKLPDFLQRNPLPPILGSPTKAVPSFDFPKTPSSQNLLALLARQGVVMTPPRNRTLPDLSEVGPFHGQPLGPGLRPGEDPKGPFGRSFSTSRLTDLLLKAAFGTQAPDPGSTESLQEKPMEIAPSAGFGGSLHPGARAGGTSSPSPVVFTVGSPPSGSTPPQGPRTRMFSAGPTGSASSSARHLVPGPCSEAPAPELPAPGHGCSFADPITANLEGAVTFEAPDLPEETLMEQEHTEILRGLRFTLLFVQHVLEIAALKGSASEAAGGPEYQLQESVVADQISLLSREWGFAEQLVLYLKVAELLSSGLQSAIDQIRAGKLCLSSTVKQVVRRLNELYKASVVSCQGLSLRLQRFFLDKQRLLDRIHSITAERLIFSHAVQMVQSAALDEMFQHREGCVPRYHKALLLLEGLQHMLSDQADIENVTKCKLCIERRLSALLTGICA
Assay: ULK1/TOM20 co-localisation immunofluorescence in PANC-1 cells
Assay type: cell-based
Parameters: pSer317 blot or TOM20 co-localisation
Description: FIG. 5. ULKTACs induce potent mitophagy after colocalisation and local activation of ULK1 at mitochondria (A) Representative immunofluorescence of PANC-1 cells treated with CCCP, ULKTACs or both and immunostained for TOM20 and ULK1 and counterstained with Alexa 488 and 568, respectively. Nuclei stained with Hoechst 33342. (B) Quantification of the colocalised ULK1 to TOM20 spot area of PANC-1 cells treated with DMSO, 5 mM CCCP, 10 mM BL-918, 10 mM BL-918+5 mM CCCP, […] NZ-65, […] NZ-65+5 mM CCCP, […] NZ-66, […] NZ-66+5 mM CCCP, 50 mM TSPO ligand, […] NZ-65+50 mM TSPO ligand, […] NZ-66+50 mM TSPO ligand. (C) Western blot of SH-SY5Y cells treated with 1 mM ULKTACs, 5 mM CCCP or both, probed for Mfn2, b-Actin and Tom20—quantifications are shown in (D) for Mfn2, normalised to Actin. (E) Representative images of SH-SY5Y cells stably expressing the mito-mKeima reporter treated with 3 mM CCCP, NZ-65 or both. Nuclei were stained with Hoechst 33342, healthy mitochondria are shown in green and mitochondria in lysosomes are shown in red. Fold change in mitophagy index over time after treatment for the indicated timepoints with title treatments alone or co-treated with 1.25 mM ULKTAC or 10 mM ULKTAC NZ-65 (F) or NZ-66 (G). Fold change in mitophagy index over time after treatment for the indicated timepoints with DMSO, 1.25 µM NZ-65 or NZ-66±50 µM TSPO ligand under co-treatment with DMSO (H) or 3 μM CCCP (I). […] Normalised to number of nuclei. All data shown are mean±SEM, n=3, *p<0.05, ** p<0.01, *** p<0.001. For colocalisation and TMRM experiments, one-way ANOVA with Dunnett's multiple comparisons test. For western blots, one-way ANOVA with Tukey's multiple comparisons test and unpaired t-test. For mito-mKeima experiment, two-way ANOVA with Tukey's multiple comparisons test.
For TOM20/ULK1 immunofluorescence, cells were seeded in a 384 well PerkinElmer CellCarrier Ultra plate 24 hours prior to treatment with compounds. Cells were treated for 18 hours after which they were fixed with 4% paraformaldehyde (PFA) in phosphate buffered saline (PBS) and blocked with 10% FBS and 0.1% Triton in PBS. Plates were incubated at 4° C. overnight, with 1:400 mouse anti-TOM20 (Santa Cruz, #sc-17764) and 1:400 rabbit anti-ULK1 (Cell Signalling Technologies, #0854). The following day, plates were incubated with 1:1000 goat anti-mouse Alexa 488 (ThermoFisher Scientific, #A-11029), 1:1000 goat anti-rabbit Alexa 568 (ThermoFisher Scientific, #A-11011) and 1.62 μM Hoechst 33342 at room temperature for 1 hour before imaging. For ATP5a/LC3 immunofluorescence, cells were fixed with ice-cold 1:1 MeOH: acetone and blocked with 3% BSA (Sigma-Aldrich, #A3803) in Dulbecco's PBS (D-PBS). Plates were incubated overnight at 4° C. with 1:400 LC3B (D11) XP Rabbit mAb Alexa Fluor 647 Conjugate (Cell Signalling Technologies, #65299) and 1:400 ATP5a (Cell Signalling Technologies, #18023) lightning-linked to Alexa Fluor 488. The following day, plates were incubated with 1.62 […] at room temperature for 1 hour before imaging. Excitation and emission spectra for each channel are as follows: Hoechst 33342=405/435-480 nm, Alexa 488=488/500-550 nm and Alexa 568=561/570-630 nm. Images were acquired at 40× and 63× magnification with water immersion lens.
To understand the temporal kinetics of NZ-65 and NZ-66, we assessed the recruitment of ULK1 to mitochondria, using co-localisation of ULK1 and TOM20 by immunofluorescence. […] After showing the co-localisation of ULK1 to the outer mitochondrial membrane (OMM) after ULKTAC treatment, we wanted to determine whether the ULKTACs induced mitophagy. To do this, we measured changes in Mfn2 under basal conditions and co-treatment with CCCP (FIG. 5C, D).

| SMILES | co-localisation of ULK1 and TOM20 (PANC-1, 18 hours, alone) | co-localisation of ULK1 and TOM20 (PANC-1, CCCP co-treatment) |
| --- | --- | --- |
| O=C(Nc1ccc(F)cc1F)[C@H](NC(=S)Nc1cc(C(F)(F)F)cc(C(F)(F)F)c1)c1ccccc1 [BL-918, reference compound] | neither BL-918 nor the TSPO ligand alone induce co-localisation |  |
| O=C(Nc1cc(C(F)(F)F)cc(C(F)(F)F)c1)N[C@@H](C(=O)Nc1ccc(F)cc1F)c1ccc(OCc2cn(CCOCCOCCNC(=O)C(=O)c3c(-c4ccccc4)[nH]c4ccccc34)nn2)cc1 [NZ-65, (R)-2-(3-(3,5-bis(trifluoromethyl)phenyl)ureido)-N-(2,4-difluorophenyl)-2-(4-((1-(2-(2-(2-(2-oxo-2-(2-phenyl-1H-indol-3-yl)acetamido)ethoxy)ethoxy)ethyl)-1H-1,2,3-triazol-4-yl)methoxy)phenyl) acetamide] | increased co-localisation of ULK1 and TOM20 | enhanced by CCCP co-treatment |
| O=C(Nc1cc(C(F)(F)F)cc(C(F)(F)F)c1)N[C@@H](C(=O)Nc1ccc(F)cc1F)c1ccc(OCc2cn(CCCCCCNC(=O)C(=O)c3c(-c4ccccc4)[nH]c4ccccc34)nn2)cc1 [NZ-66, (R)-2-(3-(3,5-bis(trifluoromethyl)phenyl)ureido)-N-(2,4-difluorophenyl)-2-(4-((1-(6-(2-oxo-2-(2-phenyl-1H-indol-3-yl)acetamido)hexyl)-1H-1,2,3-triazol-4-yl)methoxy)phenyl) acetamide] | increased co-localisation of ULK1 and TOM20 | enhanced by CCCP co-treatment |
